Where two headings read alike, the source gives them in different places.
Experiments:
DPPH free radical assay = assay type: biochemical; settings: 540 nm, relative to Trolox; for DPPH test results (µM trolox equivalent/ 1mg sample ± SD): 30 min; for DPPH anti-oxidant activity: values in text
Procedure: (§1) Preparation of samples was occurred at the following concentrations: Samples 3a, 4a, 5b, 5d and 5e at final concentrations of 0.5 mg/ml in methanol: DMSO 9:1 v/v. Samples 4b and 4d at final concentrations 0.025 mg/ml in methanol: DMSO 9:1 v/v, sample 5a at final concentrations 0.25 mg/ml in methanol: DMSO 9:1 v/v, Sample 4c, 5c and 4e at final concentrations 0.05 mg/ml in methanol: DMSO 9:1 v/v, sample 3b at final concentration 0.75 mg/ml methanol: DMSO 9:1 v/v. A stock solution of 100 µM concentration of Trolox, a standard used in this experiment, was prepared in methanol from which seven concentrations were prepared, including 50, 40, 30, 20, 15, 10 and 5 µM.
The DPPH (2,2-diphenyl-1-picryl-hydrazyl-hydrate) free radical assay was carried out according to the method of Boly et al. 2016[39]. Briefly, freshly prepared DPPH reagent (100 µl, 0.1% in methanol) was added to 100 µl of the sample on 96 well plates (n = 6). The reaction was incubated at room temp for 30 min in the dark. After completion of the incubation time, the reduction in DPPH colour intensity was measured at 540 nm. Data obtained was represented as means ± SD, according to the following equation, percentage inhibition = [(Average absorbance of blank – average absorbance of the test)/(Average absorbance of blank)] *100. The results were recorded using a microplate reader, FluoStar Omega.
Microsoft Excel® was used to analyse the obtained results. The IC50 values were calculated using Graph pad Prism 6® by converting the concentrations to their logarithmic value and selecting the non-linear inhibitor regression equation (log (inhibitor) vs. normalised response – variable slope equation). The methods used and the final test report (R-SO7320) were obtained from Nawah Scientific.

[1] = test system: TNF-α in RAW264.7 macrophage cells; test: In vitro measurement of TNF-α in RAW264.7 macrophage cells (RT-qPCR); assay type: cell-based
Text: Both Lipopolysaccharides (LPS) and hispidin were purchased from Sigma (Sigma-Aldrich, St. Louis, MO, USA)[40]. The foetal bovine serum (FBS) and Dulbecco’s modified Eagle’s medium (DMEM) were purchased from Hyclone (General Electric Healthcare Life Sciences, Mississauga, Canada), penicillin streptomycin (P/S) was purchased from Solarbio (Solarbio life sciences, Beijing, P. R. China). Results of all in vitro anti-inflammatory screening were obtained from the confirmatory diagnostic unit, VACSERA, Egypt.
DMEM was used to cultivate the macrophage cells RAW264.7 (Shanghai BOGO Industrial Co., Ltd., Shanghai, China), and supplemented with 10% FBS and 1% P/S (100 U/ml and […], respectively). […] They were treated with various concentrations of hispidin, then with 1 μg/ml LPS for the indicated time.
PBS (1 ml/well) was used to wash the cells in 24-well plates. […] For the experiments, CL Buffer included MgCl2 (M1028; Sigma) or RNasin Plus RNase Inhibitor (N2615; Promega). Before use, both Bio-Rad SPR and CL buffer were equilibrated to room temperature. […] Carefully, the resulting lysates were collected and either analysed immediately or stored frozen ([…]).
RT-qPCR analysis was performed in one-step SYBR Green RT-qPCR. […] A CFX96 real-time PCR instrument (Bio-Rad) was used under the following protocol: 50uC for 10 min, 95uC for 5 min, 95uC for 10 s/61uC for 15 s/72uC for 30 s.
Total RNA purified from cells was used as an RT-qPCR quantification standard.

COX-2 = target: T1, COX-2 (Ovis aries, UniProt P79208); test: COX-2 inhibition, enzyme immune assay (EIA) kit; assay type: biochemical, ovine; settings: for S.I (IC50 COX-1/IC50 COX-2): COX-2 selectivity index; for SI: lab report, COX1/COX2
T1 sequence (P79208 17-603): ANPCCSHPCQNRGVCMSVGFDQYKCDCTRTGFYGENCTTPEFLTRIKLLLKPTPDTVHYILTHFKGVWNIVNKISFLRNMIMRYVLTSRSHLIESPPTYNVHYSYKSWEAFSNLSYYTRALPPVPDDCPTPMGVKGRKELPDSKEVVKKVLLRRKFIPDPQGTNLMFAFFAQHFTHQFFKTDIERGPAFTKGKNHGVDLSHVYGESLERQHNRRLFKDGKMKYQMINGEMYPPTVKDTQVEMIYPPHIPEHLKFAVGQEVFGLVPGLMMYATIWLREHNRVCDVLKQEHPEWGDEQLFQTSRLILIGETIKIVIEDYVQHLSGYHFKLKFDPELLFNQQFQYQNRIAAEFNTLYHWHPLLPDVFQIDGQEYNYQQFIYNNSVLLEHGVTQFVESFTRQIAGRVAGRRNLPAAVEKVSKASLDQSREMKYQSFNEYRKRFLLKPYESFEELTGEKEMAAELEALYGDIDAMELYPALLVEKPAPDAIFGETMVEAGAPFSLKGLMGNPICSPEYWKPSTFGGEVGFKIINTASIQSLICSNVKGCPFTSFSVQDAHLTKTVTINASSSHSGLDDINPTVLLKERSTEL

5-LOX enzyme = target: T2, 5-LOX enzyme (Homo sapiens, UniProt P09917); test: 5-LOX inhibition, Human Lipoxygenase Inhibitor Screening Assay (EIA) kit; assay type: biochemical
T2 construct: purchased Cayman Chemical K980-100
T2 sequence (P09917 1-674): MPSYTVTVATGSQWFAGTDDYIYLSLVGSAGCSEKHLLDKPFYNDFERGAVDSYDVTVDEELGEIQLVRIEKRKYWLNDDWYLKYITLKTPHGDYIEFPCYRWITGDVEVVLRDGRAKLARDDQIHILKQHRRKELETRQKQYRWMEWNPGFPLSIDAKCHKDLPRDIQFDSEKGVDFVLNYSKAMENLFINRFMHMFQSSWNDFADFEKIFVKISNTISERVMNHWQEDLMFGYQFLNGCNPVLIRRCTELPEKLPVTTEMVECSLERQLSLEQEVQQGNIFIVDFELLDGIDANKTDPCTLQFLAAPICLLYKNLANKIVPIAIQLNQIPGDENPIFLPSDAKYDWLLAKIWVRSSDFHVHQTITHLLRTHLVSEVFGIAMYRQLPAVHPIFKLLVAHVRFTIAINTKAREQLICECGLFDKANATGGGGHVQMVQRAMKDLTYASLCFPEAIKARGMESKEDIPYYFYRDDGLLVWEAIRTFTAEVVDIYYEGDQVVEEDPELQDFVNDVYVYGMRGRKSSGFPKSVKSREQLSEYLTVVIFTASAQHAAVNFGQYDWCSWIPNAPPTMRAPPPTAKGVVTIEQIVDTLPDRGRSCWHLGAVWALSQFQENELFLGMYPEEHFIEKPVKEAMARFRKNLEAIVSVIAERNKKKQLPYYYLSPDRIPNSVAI
Procedure: The ability of the test compounds to inhibit the 5-LOX enzyme (IC50 value, μM) was detected using the Cayman Human Lipoxygenase Inhibitor Screening Assay (EIA) kit (catalog no. K980-100, Cayman Chemical). The IC50 values of test compounds were measured in µM according to the manufacturer’s instructions and reported method.

ovine COX-1 = target: T3, ovine COX-1 (Ovis aries, UniProt P05979); test: COX-1 inhibition, enzyme immune assay (EIA) kit
T3 sequence (P05979 25-600): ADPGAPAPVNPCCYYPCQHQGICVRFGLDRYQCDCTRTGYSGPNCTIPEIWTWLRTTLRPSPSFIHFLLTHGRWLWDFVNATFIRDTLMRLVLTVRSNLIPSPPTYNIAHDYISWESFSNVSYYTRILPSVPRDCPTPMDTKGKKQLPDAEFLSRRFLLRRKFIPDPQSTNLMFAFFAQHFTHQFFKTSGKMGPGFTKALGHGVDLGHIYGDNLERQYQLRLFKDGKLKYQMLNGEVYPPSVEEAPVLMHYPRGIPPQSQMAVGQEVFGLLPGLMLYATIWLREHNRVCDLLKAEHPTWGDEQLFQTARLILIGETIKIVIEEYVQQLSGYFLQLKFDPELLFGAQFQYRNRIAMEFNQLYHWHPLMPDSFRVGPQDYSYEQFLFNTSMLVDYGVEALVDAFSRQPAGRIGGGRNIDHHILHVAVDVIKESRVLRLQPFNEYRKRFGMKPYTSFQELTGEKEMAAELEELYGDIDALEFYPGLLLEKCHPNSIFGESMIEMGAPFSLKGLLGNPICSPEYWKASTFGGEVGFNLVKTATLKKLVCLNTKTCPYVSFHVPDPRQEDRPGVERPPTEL
Text: Colorimetric enzyme immunoassay (EIA) kits were done to screen for the isozyme-specific inhibition.

[2] = test system: Escherichia coli (E. coli) (ATCC 25922); test: Disc diffusion antimicrobial screening, E. coli; assay type: cell-based; settings: 100 µg/disc
Procedure: (§2) All compounds were screened for their antimicrobial activity at the Microbiology and Immunology Department, Faculty of Pharmacy, Beni-Suef University. The antimicrobial activity screening was carried out using the disc diffusion method, as described earlier, with some adjustments.
(§3) For each indicator microbe, a solution of half McFarland turbidity was prepared in sterile saline, followed by surface streaking of the strains on Mueller-Hinton agar with a sterile cotton swab. Then, sterile filter paper discs (5 mm diameter) preloaded with 100 µg of each compound were applied to the surface of the pre-inoculated plates. Then, the plates were chilled at 4 °C for 100 min before being incubated overnight at the proper temperature for microbial growth. Finally, the diameter of the inhibition zones around each disc was measured to evaluate the antimicrobial activity of the compounds. Ciprofloxacin was used as a standard antibacterial agent at a concentration of 20 µg/disc. Furthermore, DMSO-loaded discs were used as a negative control.

[3] = test system: Salmonella enterica (ATCC 14028); test: Disc diffusion antimicrobial screening, Salmonella enterica; assay type: cell-based; settings: 100 µg/disc
Procedure: as §2, §3

[4] = Dissolution of DPPH samples in DMSO/methanol; assay type: physicochemical; settings: DPPH sample preparation, methanol: DMSO 9:1 v/v
Procedure: as §1

stomach = test: Histopathological examination of stomach; assay type: in vivo, rats; settings: rat, in vivo
Procedure: In brief, the stomachs of each animal group’s rat were fixed in 10% neutral buffered formalin for 48 h. The sections were then dehydrated, cleared, fixed in paraffin, sectioned ([…]), and stained with H&E stain.

| Structure (SMILES) | DPPH test results (µM trolox equivalent/ 1mg sample ± SD) (DPPH free radical assay) | TNF-α fold change [1] | S.I (IC50 COX-1/IC50 COX-2) (COX-2) | SI (COX-2) | IC50 (5-LOX enzyme) [µM] | 5-LOX %inh (5-LOX enzyme; conc 0.1 (μM)) [%] | 5-LOX %inh (5-LOX enzyme; conc 1 (μM)) [%] | 5-LOX %inh (5-LOX enzyme; conc 10 (μM)) [%] | 5-LOX %inh (5-LOX enzyme; conc 100 (μM)) [%] | melting point [°C] | IC50 (ovine COX-1; IC50 COX-1) [µM] | COX1 %inh (ovine COX-1; conc 0.1 (μM)) [%] | COX1 %inh (ovine COX-1; conc 1 (μM)) [%] | COX1 %inh (ovine COX-1; conc 10 (μM)) [%] | COX1 %inh (ovine COX-1; conc 100 (μM)) [%] | DPPH anti-oxidant activity (DPPH free radical assay) [µM Trolox equivalent/mg] | further results |
| --- | --- | --- | --- | --- | --- | --- | --- | --- | --- | --- | --- | --- | --- | --- | --- | --- | --- |
| CS(=O)(=O)n1cc(/C=N/NC(=O)Nc2ccccc2)c2ccccc21 [Compound 3b, (E)-2{[1-(methylsulfonyl)-1H-indol-3yl]methylene}-N-phenylhydrazinecarboxamide] | 14.38 ± 0.85 µM trolox equivalent/ 1mg sample | 0.71 | 1.46 | 1.455 | 14.8 ± 0.78 | 5.27 | 16.1 | 36.1 | 78.4 | 234 to 236 | 32 ± 0.91 | 3.48 | 11.6 | 30.5 | 68.5 |  |  |
| CCNC(=S)N/N=C/c1cn(S(C)(=O)=O)c2ccccc12 [Compound 4b, (E)-N-Ethyl-2{[1-(methylsulfonyl)-1H-indol-3yl]methylene}-hydrazinecarbothioamide] | 426.65 ± 28.02 µM trolox equivalent/ 1mg sample |  |  | 0.236 | 29.2 ± 1.54 | 4.17 | 11.6 | 30.5 | 70.1 | 240 to 242 | 28.5 ± 0.8 | 3.74 | 8.96 | 27.4 | 73.3 | 426.65 | antibacterial activity against E. coli [2]: selective antibacterial activity; antibacterial activity against Salmonella enterica [3]: selective antibacterial activity |
| Cc1ccc(NC(=S)N/N=C/c2cn(S(C)(=O)=O)c3ccccc23)cc1 [Compound 4d, (E)-2{[1-(methylsulfonyl)-1H-indol-3yl]methylene}-N-(p-tolyl)hydrazinecarbothioamide] | 389.82 ± 19.25 µM trolox equivalent/ 1mg sample | 0.19 | 2.38 | 2.375 | 17.9 ± 0.95 | 4.88 | 12.5 | 33.7 | 77.2 | 237 to 239 | 17.1 ± 0.49 | 7.22 | 13.4 | 36.4 | 75.8 | 389.82 |  |
| CCN1CC(=O)S/C1=N\N=C\c1cn(S(C)(=O)=O)c2ccccc12 [Compound 5b] |  | 0.18 | 0.25 | 0.249 | 47.8 ± 2.53 | 1.82 | 3.84 | 15.1 | 73.1 | 230 to 232 |  | 7.23 | 15.2 | 31.1 | 73.6 |  | solubility of sample in DMSO and methanol [4]: didn’t dissolve in DMSO nor in methanol; IC50 (ovine COX-1; read-out: IC50 COX-1): 22.2 ± 0.63 µM |
| COc1ccc2c(c1)c(CC(=O)O)c(C)n2C(=O)c1ccc(Cl)cc1 [Indomethacin, reference compound] |  |  |  |  |  |  |  |  |  |  |  |  |  |  |  |  | stomach histopathology finding (stomach): multiple complete and perforating ulcers and superficial erosions |

— article PMC9721424, “Novel N-methylsulfonyl-indole derivatives: biological activity and COX-2/5-LOX inhibitory effect with improved gastro protective profile and reduced cardio vascular risks” (Journal of Enzyme Inhibition and Medicinal Chemistry, 2022)
